Experimental data: US10106530B2, “Pyrazolyl substituted tetrahydropyranylsulfones” (GRÜNENTHAL GMBH, priority 2015, dated 2018)

Target: T1, Human CaV2.2 channels (Homo sapiens, UniProt Q00975)
T1 construct: expressed in transfected cells; also stably expressing Kir2.3)
Experiment: Fluorescence assay for CaV2.2 channels using potassium depolarization to induce channel opening (FLIPR, Fluo 4)
Assay type: cell-based
Conditions: 30 mM KCl assay buffer (inactivated channel state), HEK293 cells; for inhibition at 3 µM: HEK293, 3 μM test compound, read-out: Activity Category: %-Inhib (CaV2.2) @3 μM @30 mM KCl; for Activity Category: %-Inhib (CaV2.2) @3 μM @30 mM KCl: 3 μM test compound
Description: In the process, the Ca^2+ influx is quantified in the FLIPR assay with the aid of a Ca^2+-sensitive dye (type Fluo-4, Molecular Probes Europe BV, Leiden, the Netherlands) in a fluorescent imaging plate reader (FLIPR 3, Molecular Devices, Sunnyvale, USA), as described hereinafter.
[drawing 69] 2. Assay Descriptions and Biological Data: 2.1 Fluorescence Assay for CaV2.2 Channels Using Potassium Depolarization to Induce Channel Opening
Human CaV2.2 channels were stably expressed in HEK293 cells together with alpha2-delta and beta subunits of voltage gated calcium channels. In addition, an inwardly rectifying potassium channel (Kir2.3) was stably expressed in these cells to augment control of the cell membrane potential by the concentration of extracellular potassium ions. Raise of the extracellular potassium concentration leads to depolarization of the membrane potential and thus regulates the voltage dependent state of CaV2.2 channels. For preparation, cells were seeded in black poly-D-lysine coated 96-well plates (Becton Dickinson, Biocoat 4640) in 100 μL medium [500 mL DMEM/F-12 plus Glutamax (Invitrogen 31331-093) plus 5.5 mL MEM NEAA 100× (Invitrogen 11140-035) plus 50 mL FBS decomplemented (Invitrogen 10270-106) plus 200 μg/mL Geneticin (Invitrogen 10131-027) plus 50 μg/mL Hygromycin B (Invitrogen 10687-010) plus 2 μg/mL Blasticidin (anti-b15b Invivo-Gen) plus 0.2 μg/mL Puromycin (A 11138-03)] at a cell density of 30.000 cells per well. Plates were incubated at 37° C. (5% CO2) for 20 to 23 h. On the day of experiment medium was discarded and cells were loaded with Fluo 4 by addition of 100 μL of basic assay buffer (10 mM HEPES, 1 mM KCl, 149 mM NaCl, 0.8 mM CaCl2, 1.7 mM MgCl2, 10 mM Glucose, 0.1% BSA. pH 7.4) containing 2 μM Fluo 4 (Molecular Probes; F-14201), 0.01% pluronic acid (Molecular Probes; P-6866) and 2.5 mM probenecid (Molecular Probes; P36400). Cells were incubated in the dark at 25° C. for 60 min. Then dye containing buffer was discarded and 100 μL basic (1 mM KCl) or alternative (30 mM KCl) assay buffer was added. The alternative assay buffer contained altered concentrations of KCl (30 mM) and NaCl (120 mM) and was used in order to promote the inactivated channel state. After that 25 μL of basic or alternative assay buffer with or without test compound were added and cells were incubated again in the dark at 25° C. for 15 min. Fluorescence intensity was measured on a FLIPR 3 instrument (Molecular Devices Corp., Sunnyvale, Calif.) with excitation at 480 nm and emission at 535 nm. After continuously reading fluorescence for 30 sec, 50 μL of basic assay buffer containing 210 mM KCl(NaCl omitted) were added for depolarization. Peak fluorescent signal intensity was determined and the amplitude of the peak signal, normalized to base line, was used to measure channel inhibition by test compounds.

T1 sequence (Q00975 whole entry): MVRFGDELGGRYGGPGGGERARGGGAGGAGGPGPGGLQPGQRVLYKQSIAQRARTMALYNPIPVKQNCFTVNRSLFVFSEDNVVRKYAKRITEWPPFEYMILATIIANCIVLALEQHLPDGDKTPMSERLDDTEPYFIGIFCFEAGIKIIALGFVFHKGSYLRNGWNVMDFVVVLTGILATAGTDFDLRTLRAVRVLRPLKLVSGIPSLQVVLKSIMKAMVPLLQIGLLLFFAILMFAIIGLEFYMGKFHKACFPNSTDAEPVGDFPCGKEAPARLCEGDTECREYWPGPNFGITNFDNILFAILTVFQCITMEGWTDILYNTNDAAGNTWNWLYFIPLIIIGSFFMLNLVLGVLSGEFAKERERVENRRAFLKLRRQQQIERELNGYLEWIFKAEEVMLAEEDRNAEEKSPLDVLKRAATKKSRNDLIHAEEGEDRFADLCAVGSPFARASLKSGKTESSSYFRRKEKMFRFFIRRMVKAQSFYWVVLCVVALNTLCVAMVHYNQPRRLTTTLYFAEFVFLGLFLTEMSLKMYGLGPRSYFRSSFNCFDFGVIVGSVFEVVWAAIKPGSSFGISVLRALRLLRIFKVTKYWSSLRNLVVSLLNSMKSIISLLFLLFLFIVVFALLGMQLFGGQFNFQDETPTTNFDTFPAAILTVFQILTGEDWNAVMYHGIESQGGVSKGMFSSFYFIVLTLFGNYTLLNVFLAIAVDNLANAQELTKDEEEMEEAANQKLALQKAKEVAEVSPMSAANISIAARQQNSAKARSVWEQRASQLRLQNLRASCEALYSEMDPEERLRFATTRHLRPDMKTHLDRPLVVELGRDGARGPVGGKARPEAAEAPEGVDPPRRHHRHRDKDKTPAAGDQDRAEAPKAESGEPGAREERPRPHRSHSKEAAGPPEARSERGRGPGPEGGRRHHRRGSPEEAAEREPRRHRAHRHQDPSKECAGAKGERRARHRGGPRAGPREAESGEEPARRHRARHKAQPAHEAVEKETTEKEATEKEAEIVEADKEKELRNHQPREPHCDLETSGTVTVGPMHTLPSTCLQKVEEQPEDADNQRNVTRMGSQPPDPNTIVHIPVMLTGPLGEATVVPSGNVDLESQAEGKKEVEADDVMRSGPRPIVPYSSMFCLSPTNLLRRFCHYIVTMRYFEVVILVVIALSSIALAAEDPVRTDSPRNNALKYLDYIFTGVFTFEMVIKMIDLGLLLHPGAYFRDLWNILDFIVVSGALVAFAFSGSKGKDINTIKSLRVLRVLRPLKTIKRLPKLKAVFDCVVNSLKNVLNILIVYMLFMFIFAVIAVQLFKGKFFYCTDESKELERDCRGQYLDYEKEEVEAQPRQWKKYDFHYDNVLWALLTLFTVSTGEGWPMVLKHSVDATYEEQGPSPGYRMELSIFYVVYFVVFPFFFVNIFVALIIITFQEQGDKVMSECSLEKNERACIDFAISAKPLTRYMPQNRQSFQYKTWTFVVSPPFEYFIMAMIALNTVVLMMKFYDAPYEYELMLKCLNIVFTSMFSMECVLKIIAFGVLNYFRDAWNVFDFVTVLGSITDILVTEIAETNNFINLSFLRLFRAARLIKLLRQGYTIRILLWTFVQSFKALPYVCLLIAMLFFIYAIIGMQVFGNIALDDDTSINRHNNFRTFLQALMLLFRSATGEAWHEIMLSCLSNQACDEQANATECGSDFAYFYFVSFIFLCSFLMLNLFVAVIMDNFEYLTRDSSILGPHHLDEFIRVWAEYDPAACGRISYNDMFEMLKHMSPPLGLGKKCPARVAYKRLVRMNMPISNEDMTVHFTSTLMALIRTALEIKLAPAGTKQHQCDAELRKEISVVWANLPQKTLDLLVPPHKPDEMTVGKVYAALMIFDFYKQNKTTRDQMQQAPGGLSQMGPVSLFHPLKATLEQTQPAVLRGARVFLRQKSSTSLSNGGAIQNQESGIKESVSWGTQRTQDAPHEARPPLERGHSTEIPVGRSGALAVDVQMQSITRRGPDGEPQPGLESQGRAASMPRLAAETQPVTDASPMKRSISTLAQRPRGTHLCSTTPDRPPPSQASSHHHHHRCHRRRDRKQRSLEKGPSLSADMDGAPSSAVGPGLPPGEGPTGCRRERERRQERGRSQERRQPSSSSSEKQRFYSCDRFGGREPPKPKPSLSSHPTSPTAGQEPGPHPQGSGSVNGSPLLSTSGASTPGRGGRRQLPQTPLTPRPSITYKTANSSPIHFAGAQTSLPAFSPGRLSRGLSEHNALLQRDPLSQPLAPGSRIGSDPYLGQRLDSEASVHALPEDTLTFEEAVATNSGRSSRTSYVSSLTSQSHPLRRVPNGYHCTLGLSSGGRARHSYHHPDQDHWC

Molecule `CC1(S(=O)(=O)c2cccc(C(F)(F)F)c2)CCOC(c2cc(C3(O)COC3)n[nH]2)C1` (stereo not drawn) [Example 18 cis-EN1, 3-[5-[4-Methyl-4-[[3-(trifluoromethyl)phenyl]sulfonyl]-tetrahydro-pyran-2-yl]-1H-pyrazol-3-yl]-oxetan-3-ol] has an inhibition at 3 µM of 40 to 75%.

Work on `CC(C)(C#N)c1cc(C2CC(C)(S(=O)(=O)c3cccc(C(F)(F)F)c3)CCO2)[nH]n1` (stereo not drawn) [Example 31 cis-EN1, 2-Methyl-2-[5-[4-methyl-4-[[3-(trifluoromethyl)phenyl]sulfonyl]-tetrahydro-pyran-2-yl]-1H-pyrazol-3-yl]-propionitrile] yielded an inhibition at 3 µM of over 95%.

`CC(C)(C#N)c1cc(C2CC(C)(S(=O)(=O)c3cccc(C(F)(F)F)n3)CCO2)[nH]n1` (stereo not drawn) [Example 38 cis-EN2, 2-Methyl-2-[5-[4-methyl-4-[[6-(trifluoromethyl)-pyridin-2-yl]sulfonyl]-tetrahydro-pyran-2-yl]-1H-pyrazol-3-yl]-propionitrile] was tested, and the “Activity Category: %-Inhib (CaV2.2) @3 μM @30 mM KCl” value (shortened to “Activity Category: %-Inhib”) (listed as 38 cis-EN2) was “B (%-Inhibition >75% up to ≤95%)”.

With `CC1(S(=O)(=O)c2cccc(C(F)(F)F)c2)CCOC(c2cc(OCC(F)F)n[nH]2)C1` (stereo not drawn) [Example 32 cis-EN1, 5-(2,2-Difluoro-ethoxy)-3-[4-methyl-4-[[3-(trifluoromethyl)phenyl]sulfonyl]-tetrahydro-pyran-2-yl]-1H-pyrazole] the inhibition at 3 µM was over 95%.

In the case of `CC1(S(=O)(=O)c2cccc(C(F)(F)F)c2)CCOC(c2cc(CC(F)F)n[nH]2)C1` (stereo not drawn) [Example 14 cis-EN2, 3-(2,2-Difluoro-ethyl)-5-[4-methyl-4-[[3-(trifluoromethyl)phenyl]sulfonyl]-tetrahydro-pyran-2-yl]-1H-pyrazole], the “Activity Category: %-Inhib” value is reported as “A (%-Inhibition >95%)”.

Work on `C[C@@]1(S(=O)(=O)c2cccc(C(F)(F)F)c2)CCO[C@@H](c2cc(S(=O)(=O)C(F)F)n[nH]2)C1` (racemic) [[trans-rac] Example 1, 3-(Difluoro-methylsulfonyl)-5-[4-methyl-4-[[3-(trifluoromethyl)phenyl]sulfonyl]-tetrahydro-pyran-2-yl]-1H-pyrazole] yielded an inhibition at 3 µM of 75 to 95%.

With `CC1(S(=O)(=O)c2cccc(C(F)(F)F)c2)CCOC(c2cc(S(=O)(=O)CC(F)(F)F)n[nH]2)C1` (stereo not drawn) [Example 29 cis-EN1, 5-[4-Methyl-4-[[3-(trifluoromethyl)phenyl]sulfonyl]-tetrahydro-pyran-2-yl]-3-(2,2,2-trifluoro-ethylsulfonyl)-1H-pyrazole] the inhibition at 3 µM was 75 to 95%.

`COCCS(=O)(=O)c1cc(C2CC(C)(S(=O)(=O)c3cccc(C(F)(F)F)c3)CCO2)[nH]n1` (stereo not drawn) [Example 5 cis-EN1, 3-(2-Methoxy-ethylsulfonyl)-5-[4-methyl-4-[[3-(trifluoromethyl)phenyl]sulfonyl]-tetrahydro-pyran-2-yl]-1H-pyrazole] was tested, and the “Activity Category: %-Inhib” value (listed as 5 cis-EN1) was “B (%-Inhibition >75% up to ≤95%)”.

For `CC1(S(=O)(=O)c2cccc(C(F)(F)F)c2)CCOC(c2cc(C(F)F)[nH]n2)C1` (stereo not drawn) [[cis-EN2] Example 12] [5-(Difluoro-methyl)-3-[4-methyl-4-[[3-(trifluoromethyl)phenyl]sulfonyl]-tetrahydro-pyran-2-yl]-1H-pyrazole], the “Activity Category: %-Inhib” value was “A (%-Inhibition >95%)”.

With `CC(C)(C#N)c1cc(C2CC(C)(S(=O)(=O)c3cccc(C(F)(F)F)n3)CCO2)[nH]n1` (stereo not drawn) [Example 38 cis-EN1, 2-Methyl-2-[5-[4-methyl-4-[[6-(trifluoromethyl)-pyridin-2-yl]sulfonyl]-tetrahydro-pyran-2-yl]-1H-pyrazol-3-yl]-propionitrile] the “Activity Category: %-Inhib” value (listed as 38 cis-EN1) was “C (%-Inhibition >40% up to ≤75%)”.

In the case of `CC1(S(=O)(=O)c2cccc(C(F)(F)F)c2)CCOC(c2cc(S(=O)(=O)C(F)(F)F)n[nH]2)C1` (stereo not drawn) [Example 27 cis-EN2, 3-(Trifluoro-methylsulfonyl)-5-[4-methyl-4-[[3-(trifluoromethyl)phenyl]sulfonyl]-tetrahydro-pyran-2-yl]-1H-pyrazole], the “Activity Category: %-Inhib” value is reported as “B (%-Inhibition >75% up to ≤95%)”.

For `CC(C)(c1cc(C2CC(C)(S(=O)(=O)c3cccc(C(F)(F)F)c3)CCO2)[nH]n1)S(C)(=O)=O` (stereo not drawn) [Example 7 cis-EN1, 3-(1-Methyl-1-methylsulfonyl-ethyl)-5-[4-methyl-4-[[3-(trifluoromethyl)phenyl]sulfonyl]-tetrahydro-pyran-2-yl]-1H-pyrazole], the inhibition at 3 µM was 75 to 95%.

For `CC(C)(CO)c1cc(C2CC(C)(S(=O)(=O)c3cccc(C(F)(F)F)c3)CCO2)[nH]n1` (stereo not drawn) [Example 34 cis-EN1, 2-Methyl-2-[5-[4-methyl-4-[[3-(trifluoromethyl)phenyl]sulfonyl]-tetrahydro-pyran-2-yl]-1H-pyrazol-3-yl]-propan-1-ol], the inhibition at 3 µM was 75 to 95%.

With `COCC(C)(C)c1cc(C2CC(C)(S(=O)(=O)c3cccc(C(F)(F)F)c3)CCO2)[nH]n1` (stereo not drawn) [Example 33 cis-EN1, 3-(2-Methoxy-1,1-dimethyl-ethyl)-5-[4-methyl-4-[[3-(trifluoromethyl)phenyl]sulfonyl]-tetrahydro-pyran-2-yl]-1H-pyrazole] the inhibition at 3 µM was over 95%.

For `CC1(S(=O)(=O)c2cccc(C(F)(F)F)c2)CCOC(c2cc(S(=O)(=O)C(F)F)n[nH]2)C1` (stereo not drawn) [[cis-EN1] Example 1, 3-(Difluoro-methylsulfonyl)-5-[4-methyl-4-[[3-(trifluoromethyl)phenyl]sulfonyl]-tetrahydro-pyran-2-yl]-1H-pyrazole], the inhibition at 3 µM was 75 to 95%.

`CC1(S(=O)(=O)c2cccc(C(F)(F)F)c2)CCOC(c2cc(S(C)(=O)=O)n[nH]2)C1` (stereo not drawn) [Example 37 cis-EN2, 5-Methylsulfonyl-3-[4-methyl-4-[[3-(trifluoromethyl)phenyl]sulfonyl]-tetrahydro-pyran-2-yl]-1H-pyrazole] was tested, and the “Activity Category: %-Inhib” value (listed as 37 cis-EN2) was “B (%-Inhibition >75% up to ≤95%)”.

`CC1(S(=O)(=O)c2cccc(C(F)(F)F)c2)CCOC(c2cc(CC(F)(F)F)n[nH]2)C1` (racemic) [Example 15 cis-rac, 5-[4-Methyl-4-[[3-(trifluoromethyl)phenyl]sulfonyl]-tetrahydro-pyran-2-yl]-3-(2,2,2-trifluoro-ethyl)-1H-pyrazole] was tested, and the inhibition at 3 µM was over 95%.
